# Legend:
# [1] = system: Dandelions and a mixture of grasses; assay: Example 3: overall statement, Dandelions and mixture of grasses; format: in vivo; conditions: absence of glyphosate, 5% w/v
# Description: (§1) The effects of different branched chain alcohol ethoxylates in admixture with glyphosate on both Dandelions and a mixture of grasses were investigated.
# (§2) Dandelion samples and a mixture of grasses obtained from a meadow environment were planted into square 20 cm pots and kept and grown on in glasshouse for at least 2 weeks (18 to 20° C., 60% relative humidity).
# (§3) Application of branched chain alcohol ethoxylate was carried out using a tracksprayer, spraying at a rate of 600 l/ha.
# (§4) Visual assessment of the estimated percentage damage to the plant was carried out 1, 6, 13, and 20 days from application.
# (§5) Damage was assessed as wilting, desiccation or any other kind of visual injury in comparison to the untreated control (water only).
# Dandelion = assay: Example 3: branched chain alcohol ethoxylates in admixture with glyphosate, visual % damage, 600 l/ha; format: in vivo; conditions: adjuvant where present 5% w/v
# Description: as §1, §2, §3, §4, §5
# Grass mix = assay: as above; format: in vivo, mixture of grasses; conditions: adjuvant where present 5% w/v
# Description: as §1, §2, §3, §4, §5
# Veronica persica = assay: Example 2: alcohol ethoxylate adjuvants without glyphosate, visual % damage, tracksprayer 300 l/ha; format: in vivo
# Summary of the method: (§6)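 Veronica persica, Stellaria media, Trifolium repens and Poa annua were sown 24 days before treatment and grown in a glasshouse at 18–20 °C and 60% RH. Alcohol ethoxylates without glyphosate were track-sprayed at 300 l/ha. Visual % damage (wilting, desiccation, other injury) versus water-only controls was scored 1, 7 and 14 days after application.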
# Trifolium repens = assay: as above; format: in vivo
# Summary of the method: as §6
# Poa annua [2] = assay: as above; format: in vivo
# Summary of the method: as §6
# Stellaria media [3] = assay: as above; format: in vivo
# Summary of the method: as §6
# [4] = system: broadleaf weeds and grasses; assay: Example 4: overall statement, broadleaf weeds and grasses; format: in vivo; conditions: 2.5% w/v in admixture with glyphosate (Weedbuster)
# From the text: The effect on broadleaf weeds and grasses of different concentrations of Genapol™ X060 (iso-tridecyl alcohol polyglycol ether with 6 moles of ethoxylation) in admixture with glyphosate was investigated.
# Troughs (measuring 55 cm by 9 cm by 8.5 cm) were filled with local field soil. Seeds of Taraxacum officinale, Urtica dioica, Trifolium repens and Poa annua were sown 41 days before application of test samples, and seeds of Stellaria media, Veronica persica, Agropyron repens and Lolium multiflorum were sown 24 days before application of test samples. Plants were grown in the glasshouse at 18 to 20° C. and 60% relative humidity. One week before application of test samples, troughs were placed outside (but covered).
# Application of test samples was carried out using a tracksprayer, spraying at a rate of 300 l/ha. Treated plants were kept outside and visual assessment of the percentage damage to the plants was carried out at 1, 7, 14, and 21 days after application.
# as §5
# [5] = system: broadleaf weeds and grasses; assay: Example 1: overall statement on adjuvants alone; format: in vivo; conditions: 1 and 6 days after treatment, adjuvant alone
# Description: (§7) The effect of different adjuvants (see Table 1 below) on the growth of broadleaf weed and grass species was investigated and compared to untreated (water only) control weeds.
# (§8) Plates, each with 48 pots measuring 2.7 cm diameter and 5 cm deep, were filled with TKS1 growing media (Floragard, Germany). Seeds of Taraxacum officinale, Stellaria media or Poa annua were sown on the surface (10 to 20 per pot). Plants were grown in glasshouse at a temperature of 18 to 20° C. and at 60% relative humidity.
# (§9) Plants were treated 15 (Stellaria, Poa) and 34 (Taraxacum) days after sowing with 60 μl of a 1.25, 2.5, 5 and 10% (w/v) solution of adjuvant using a hand airbrush.
# (§10) Visual assessment of the percentage damage to the plant was carried out 1 day and 6 days from application.
# as §5
# Taraxacum officinale = assay: Example 1: adjuvants alone, visual % damage, pots in glasshouse; format: in vivo
# Description: as §7, §8, §9, §10, §5
# Poa annua [6] = assay: as above; format: in vivo
# Description: as §7, §8, §9, §10, §5
# Stellaria media [7] = assay: as above; format: in vivo
# Description: as §7, §8, §9, §10, §5
# [8] = system: broadleaf weed and grass species; assay: Example 2: overall statement on alcohol ethoxylates without glyphosate; format: in vivo; conditions: absence of glyphosate
# From the text: The effect of different types of alcohol ethoxylate (branched—Genapol X-series, and unbranched—Genapol O-series, differing degrees of ethoxylation, see Table 3 below for more details), on unwanted vegetation (broadleaf weed and grass species), in the absence of glyphosate, was investigated and compared to untreated (water only) control weeds.
# Troughs (measuring 16 cm by 13 cm by 5 cm) were filled with local field soil. Seeds of Veronica persica, Stellaria media, Trifolium repens and Poa annua were sown 24 days before application of test samples. Plants were grown in the glasshouse at 18 to 20° C. and 60% relative humidity. Application of alcohol ethoxylate test samples was carried out using a tracksprayer, spraying at a rate of 300 l/ha. Plants were kept in glasshouse and visual assessment of the estimated percentage damage to the plant was carried out 1, 7, and 14 days from application.
# as §5
substance,measurement,setting,value
Iso-tridecyl alcohol polyglycol ether with 6 moles of ethoxylation [GenapolX060],course of damage over time (recovery),[1],the level of damage decreases from day 13 onwards
same,% Damage 1 daa Dandelion,Dandelion,40%
same,% Damage 6 daa Dandelion,Dandelion,50%
same,% Damage 13 daa Dandelion,Dandelion,30%
same,% Damage 20 daa Dandelion,Dandelion,20%
same,% Damage 1 daa Grass mix,Grass mix,20%
same,% Damage 6 daa Grass mix,Grass mix,50%
same,% Damage 13 daa Grass mix,Grass mix,40%
same,% Damage 20 daa Grass mix,Grass mix,40%
same,mean % damage 1 daa Veronica persica,Veronica persica; adjuvant 1% w/v,10%
same,mean % damage 7 daa Veronica persica,Veronica persica; adjuvant 1% w/v,10%
same,mean % damage 14 daa Veronica persica,Veronica persica; adjuvant 1% w/v,5%
same,mean % damage 1 daa Veronica persica,Veronica persica; adjuvant 1.5% w/v,20%
same,mean % damage 7 daa Veronica persica,Veronica persica; adjuvant 1.5% w/v,20%
same,mean % damage 14 daa Veronica persica,Veronica persica; adjuvant 1.5% w/v,10%
same,mean % damage 1 daa Veronica persica,Veronica persica; adjuvant 2% w/v,70%
same,mean % damage 7 daa Veronica persica,Veronica persica; adjuvant 2% w/v,70%
same,mean % damage 14 daa Veronica persica,Veronica persica; adjuvant 2% w/v,50%
same,mean % damage 1 daa Veronica persica,Veronica persica; adjuvant 2.5% w/v,60%
same,mean % damage 7 daa Veronica persica,Veronica persica; adjuvant 2.5% w/v,40%
same,mean % damage 14 daa Veronica persica,Veronica persica; adjuvant 2.5% w/v,40%
same,mean % damage 1 daa Trifolium repens,Trifolium repens; adjuvant 1% w/v,40%
same,mean % damage 7 daa Trifolium repens,Trifolium repens; adjuvant 1% w/v,40%
same,mean % damage 14 daa Trifolium repens,Trifolium repens; adjuvant 1% w/v,0%
same,mean % damage 1 daa Trifolium repens,Trifolium repens; adjuvant 1.5% w/v,60%
same,mean % damage 7 daa Trifolium repens,Trifolium repens; adjuvant 1.5% w/v,50%
same,mean % damage 14 daa Trifolium repens,Trifolium repens; adjuvant 1.5% w/v,0%
same,mean % damage 1 daa Trifolium repens,Trifolium repens; adjuvant 2% w/v,70%
same,mean % damage 7 daa Trifolium repens,Trifolium repens; adjuvant 2% w/v,60%
same,mean % damage 14 daa Trifolium repens,Trifolium repens; adjuvant 2% w/v,0%
same,mean % damage 1 daa Trifolium repens,Trifolium repens; adjuvant 2.5% w/v,70%
same,mean % damage 7 daa Trifolium repens,Trifolium repens; adjuvant 2.5% w/v,60%
same,mean % damage 14 daa Trifolium repens,Trifolium repens; adjuvant 2.5% w/v,5%
same,mean % damage 1 daa Poa annua,Poa annua [2]; adjuvant 1% w/v,20%
same,mean % damage 7 daa Poa annua,Poa annua [2]; adjuvant 1% w/v,30%
same,mean % damage 14 daa Poa annua,Poa annua [2]; adjuvant 1% w/v,10%
same,mean % damage 1 daa Poa annua,Poa annua [2]; adjuvant 1.5% w/v,20%
same,mean % damage 7 daa Poa annua,Poa annua [2]; adjuvant 1.5% w/v,40%
same,mean % damage 14 daa Poa annua,Poa annua [2]; adjuvant 1.5% w/v,10%
same,mean % damage 1 daa Poa annua,Poa annua [2]; adjuvant 2% w/v,40%
same,mean % damage 7 daa Poa annua,Poa annua [2]; adjuvant 2% w/v,50%
same,mean % damage 14 daa Poa annua,Poa annua [2]; adjuvant 2% w/v,15%
same,mean % damage 1 daa Poa annua,Poa annua [2]; adjuvant 2.5% w/v,40%
same,mean % damage 7 daa Poa annua,Poa annua [2]; adjuvant 2.5% w/v,50%
same,mean % damage 14 daa Poa annua,Poa annua [2]; adjuvant 2.5% w/v,0%
same,mean % damage 1 daa Stellaria media,Stellaria media [3]; adjuvant 1% w/v,5%
same,mean % damage 7 daa Stellaria media,Stellaria media [3]; adjuvant 1% w/v,5%
same,mean % damage 14 daa Stellaria media,Stellaria media [3]; adjuvant 1% w/v,0%
same,mean % damage 1 daa Stellaria media,Stellaria media [3]; adjuvant 1.5% w/v,10%
same,mean % damage 7 daa Stellaria media,Stellaria media [3]; adjuvant 1.5% w/v,10%
same,mean % damage 14 daa Stellaria media,Stellaria media [3]; adjuvant 1.5% w/v,0%
same,mean % damage 1 daa Stellaria media,Stellaria media [3]; adjuvant 2% w/v,10%
same,mean % damage 7 daa Stellaria media,Stellaria media [3]; adjuvant 2% w/v,30%
same,mean % damage 14 daa Stellaria media,Stellaria media [3]; adjuvant 2% w/v,10%
same,mean % damage 1 daa Stellaria media,Stellaria media [3]; adjuvant 2.5% w/v,20%
same,mean % damage 7 daa Stellaria media,Stellaria media [3]; adjuvant 2.5% w/v,40%
same,mean % damage 14 daa Stellaria media,Stellaria media [3]; adjuvant 2.5% w/v,20%
same,rapid symptomology versus Roundup and Weedbuster,[4],more rapid symptomology against all weeds in comparison to Roundup
same,visual symptoms of phytotoxicity,[5],comparatively high level of visual symptoms of phytoxicity
same,avg % damage 1 DAA Taraxacum officinale,Taraxacum officinale; adjuvant 1.25% w/v,5%
same,avg % damage 6 DAA Taraxacum officinale,Taraxacum officinale; adjuvant 1.25% w/v,20%
same,avg % damage 1 DAA Taraxacum officinale,Taraxacum officinale; adjuvant 2.5% w/v,10%
same,avg % damage 6 DAA Taraxacum officinale,Taraxacum officinale; adjuvant 2.5% w/v,20%
same,avg % damage 1 DAA Taraxacum officinale,Taraxacum officinale; adjuvant 5% w/v,30%
same,avg % damage 6 DAA Taraxacum officinale,Taraxacum officinale; adjuvant 5% w/v,40%
same,avg % damage 1 DAA Taraxacum officinale,Taraxacum officinale; adjuvant 10% w/v,45%
same,avg % damage 6 DAA Taraxacum officinale,Taraxacum officinale; adjuvant 10% w/v,35%
same,avg % damage 1 DAA Poa annua,Poa annua [6]; adjuvant 1.25% w/v,45%
same,avg % damage 6 DAA Poa annua,Poa annua [6]; adjuvant 1.25% w/v,50%
same,avg % damage 1 DAA Poa annua,Poa annua [6]; adjuvant 2.5% w/v,55%
same,avg % damage 6 DAA Poa annua,Poa annua [6]; adjuvant 2.5% w/v,70%
same,avg % damage 1 DAA Poa annua,Poa annua [6]; adjuvant 5% w/v,75%
same,avg % damage 6 DAA Poa annua,Poa annua [6]; adjuvant 5% w/v,80%
same,avg % damage 1 DAA Poa annua,Poa annua [6]; adjuvant 10% w/v,70%
same,avg % damage 6 DAA Poa annua,Poa annua [6]; adjuvant 10% w/v,80%
same,avg % damage 1 DAA Stellaria media,Stellaria media [7]; adjuvant 1.25% w/v,25%
same,avg % damage 6 DAA Stellaria media,Stellaria media [7]; adjuvant 1.25% w/v,35%
same,avg % damage 1 DAA Stellaria media,Stellaria media [7]; adjuvant 2.5% w/v,30%
same,avg % damage 6 DAA Stellaria media,Stellaria media [7]; adjuvant 2.5% w/v,40%
same,avg % damage 1 DAA Stellaria media,Stellaria media [7]; adjuvant 5% w/v,35%
same,avg % damage 6 DAA Stellaria media,Stellaria media [7]; adjuvant 5% w/v,65%
same,avg % damage 1 DAA Stellaria media,Stellaria media [7]; adjuvant 10% w/v,60%
same,avg % damage 6 DAA Stellaria media,Stellaria media [7]; adjuvant 10% w/v,85%
same,course of damage over time (recovery),[8],the level of damage decreases from day 14 onwards

# From patent US20130252816A1, “HERBICIDAL COMPOSITION AND USE THEREOF” (Syngenta Crop Protection LLC, priority 2010, published 2013)
